Columns and labels:
[1] = test system: IL-5 secreted by LN cells; test: IL-5 secretion by GA-stimulated LN cells, MSD 9-plex ELISA (Example II); assay type: cell-based, mouse; conditions: for IL-5 secretion response ratio (treated cell medium to control DCCM1 medium): 21 hr
Description: Animals at 8 weeks of age were immunized by injection into four footpads using a 1 mL syringe with a 27-G, 1⁄2-inch needle. […] Ten days post-immunization, immunized animals were sacrificed via cervical dislocation. […] The LN cells were isolated by pressing the LN with the plunger end of a sterile syringe. […] Trypan blue exclusion method was used to determine the cell density of viable cells in the suspension. […] Cat. […] LN cells were plated into a 24-well tissue culture plate for drug stimulation. […] Cell debris was removed by centrifugation at ca. 200×g for 10 minutes at 4° C. Cytokines secreted by treated cells were determined on the day of collection by ELISA using mouse TH 1/TH 2 9-Plex Tissue Culture Kit (Meso Scale Discovery; Cat No. […]-2, Lot #: K0032839) which detects Th1 cytokines (IFN-γ, IL-2, IL-12, IL-1β, TNF-α, CXCL1) and Th2 cytokines (IL-4, IL-5 and IL-10). For IFN-γ, culture media also were assayed at 45 hours using mouse IFN-γ Tissue Culture Kit (Meso Scale Discovery; Cat No. […] For the positive control, 0.5 mL of LN cells (5×10^6 cells/well) were treated with 0.5 mL of ConA (5 μg/mL). For the negative control, 0.5 mL of LN cells (5×10^6 cells/well) were treated with 0.5 mL of MBP (20 μg/mL). The LN cells with mock stimulation (enriched DCCM1 medium) were used to monitor the background level of a cytokine. For the cytokine assays, calibration standards or samples were incubated in the MULTI-SPOT or the SINGLE-SPOT plate and each cytokine bound to its corresponding capture antibody. All test samples were run in duplicate. The amount of each cytokine on its distinct spot was quantified using a cytokine-specific detection antibody labeled with MSD SULFO-TAGTM reagent. Electrochemiluminescent signals from immobilized SULFO-TAGTM-labeled complexes on each spot from each well were captured by the MSD SECTOR Imager 6000, which produces a signal directly proportional to the amount of captured cytokine in a test sample. The levels of cytokines in test samples were derived by interpolation from calibration curves with calibration standards of known concentrations using reagents provided with the MSD kits. Kits were used according to the manufacturer's protocols. […] Data are expressed as a response ratio of cytokine concentration in treated cell medium to control DCCM1 medium.

[2] = test system: IL-2 secreted by LN cells; test: IL-2 secretion by GA-stimulated LN cells, MSD 9-plex ELISA (Example II); assay type: cell-based, mouse; conditions: for IL-2 secretion response ratio (treated cell medium to control DCCM1 medium): 21 hr
[3] = test system: mIFN-γ mRNA in primary LN cells; test: mIFN-γ mRNA by real-time PCR in stimulated LN cells of immunized (SJL/J×BALB/C)F1 mice (Example I); assay type: cell-based, mouse
Description: For each of the three experiments summarized in Table 1, female (SJL/J×BALB/C) F1 hybrid (Jackson Laboratory) mice were immunized by footpad injection with either 250 μg GMA (Mylan Pharmaceuticals, Inc.) and CFA (Sigma Aldrich), or Mannitol and CFA (as a negative control). The GA solution was diluted to 5 mg/mL with Dulbecco's Phosphate-buffered saline. A dose solution was then prepared by mixing the diluted GA solution (5 mg/mL) and CFA (1:1) until well-emulsified. Each mouse received a total injection volume of 0.1 mL (250 μg GA). Animals were immunized on Day 0. Immunized animals were sacrificed via cervical dislocation on Day 10 following immunization. […] The LN were washed 3 times with −5 mL of RPMI medium, and the LN cells isolated by pressing the LN with a syringe plunger. […] The cell suspension was centrifuged at about 200×g for 10 minutes at about 4° C. and re-suspended in ice cold enriched DCCM-1 medium. The LN cells (2.5×10^6 cells/cm^2) were plated in the wells of a 48-well tissue culture plate and stimulated with GA or controls.
Expression of cytokine mRNA was quantitatively analyzed using a Real-Time PCR system (7500, Applied Biosystems).
(DCCM1 from Beit Haemek Ltd.; Cat. No. 05 010 1A). There was no MBP treatment for the 2-hour groups.
Group 1B animals were female (SJL/J×BALB/C) F1 hybrid (Jackson Laboratory) mice immunized by footpad injection with either 250 μg GA and CFA, or Mannitol and CFA (as a negative control). A dose solution was prepared by mixing a diluted GA solution (5 mg/mL) and CFA (1:1). Each mouse received a total injection volume of […] (250 μg GA). Animals were immunized on Day 0. Immunized animals were sacrificed via cervical dislocation on Day 10 following immunization. Lymph nodes from immunized mice were removed and isolated. LN cells (2.5×10^6 cells/cm^2) were plated in the wells of a 48-well tissue culture plate for stimulation with GA.
Expression of cytokine mRNA was quantitatively analyzed 4 and 6 hours after using a Real-Time PCR system (7500, Applied Biosystems).

[4] = test system: mouse IL-13 mRNA in primary LN cells; test: Mouse IL-13 mRNA in LN cells of immunized SJL/J mice stimulated with Copaxone and GMA lots, normalized to Actβ or GAPDH (Example V); assay type: cell-based; conditions: for 1L-13 mRNA Fold Change: normalized to Actβ; for IL-13 mRNA Fold Change: normalized to GAPDH
Description: A real-time polymerase chain reaction method was used to measure the expression of cytokine mRNA in GA-stimulated LN cells from GA-immunized SJL/J mice. Normalization of expression with two different housekeeping genes, GAPDH and β-actin, was tested.
Each group consisted of six female SJL/J mice immunized by injection in all four footpads with a total dose of 250 μg of one lot of GA, or mannitol and no GA. Three Copaxone batches and three GMA batches were used to immunize the mice. CFA was included in both GA and mannitol immunizations. Ten days following immunization, LN cell samples isolated from the immunized mice were each stimulated with a concentration of a Copaxone lot and a GMA lot. A positive control of 2.5 μg/mL ConA treated LN cells and a negative control of 10 μg/mL MBP treated cells were included in each group.
Therefore, the Q-PCR analysis was repeated on the samples, measuring levels of IL-2, IL-4, IL-5, and IL-13, using both GAPDH and β-actin as reference gene.

[5] = BALB/cByJ, immunized GA Intraplantar
[6] = BALB/cByJ, immunized GA Lower Limb
[7] = BALB/cByJ, immunized Mannitol Intraplantar
[8] = C57BL10J, immunized GA Intraplantar
[9] = C57BL10J, immunized GA Lower Limb
[10] = C57BL10J, immunized Mannitol Intraplantar
[11] = CD-1, immunized GA Intraplantar
[12] = CD-1, immunized Mannitol Intraplantar
[13] = Experiment 1, GA-immunized (SJL/J×BALB/C)F1, 2 hour post stimulation, GA 10, ConA 2.5 μg/mL
[14] = Experiment 1, GA-immunized (SJL/J×BALB/C)F1, 4 hour post stimulation, GA 10, MBP 10, ConA 2.5 μg/mL
[15] = Experiment 1, GA-immunized (SJL/J×BALB/C)F1, 6 hour post stimulation, GA 10, MBP 10, ConA 2.5 μg/mL
[16] = Experiment 1, GA-immunized (SJL/J×BALB/C)F1, 24 hour post stimulation, GA 10, MBP 10, ConA 2.5 μg/mL
[17] = Group 1B (GA + CFA), 4 hours post-stimulation, GA 10, MBP 10, ConA 2.5 μg/mL, reference GAPDH
[18] = Group 1B (GA + CFA), 6 hours post-stimulation, GA 10, MBP 10, ConA 2.5 μg/mL, reference GAPDH
[19] = Group 2B (Mannitol + CFA), 4 hours post-stimulation, GA 10, MBP 10, ConA 2.5 μg/mL, reference GAPDH
[20] = Group 2B (Mannitol + CFA), 6 hours post-stimulation, GA 10, MBP 10, ConA 2.5 μg/mL, reference GAPDH

Row | Molecule | IL-5 secretion response ratio (treated cell medium to control DCCM1 medium) [1, 5] | IL-5 secretion response ratio (treated cell medium to control DCCM1 medium) [1, 6] | IL-5 secretion response ratio (treated cell medium to control DCCM1 medium) [1, 7] | IL-5 secretion response ratio (treated cell medium to control DCCM1 medium) [1, 8] | IL-5 secretion response ratio (treated cell medium to control DCCM1 medium) [1, 9] | IL-5 secretion response ratio (treated cell medium to control DCCM1 medium) [1, 10] | IL-5 secretion response ratio (treated cell medium to control DCCM1 medium) [1, 11] | IL-5 secretion response ratio (treated cell medium to control DCCM1 medium) ([1]; CD-1, immunized GA Lower Limb) | IL-5 secretion response ratio (treated cell medium to control DCCM1 medium) [1, 12] | IL-2 secretion response ratio (treated cell medium to control DCCM1 medium) [2, 6] | IL-2 secretion response ratio (treated cell medium to control DCCM1 medium) [2, 8] | IL-2 secretion response ratio (treated cell medium to control DCCM1 medium) [2, 9] | IL-2 secretion response ratio (treated cell medium to control DCCM1 medium) ([2]; CD-1, immunized GA Lower Limb) | mIFN-γ mRNA Level [3, 14] [fold change vs control] | mIFN-γ mRNA Level [3, 15] [fold change vs control] | mIFN-γ mRNA Level [3, 16] [fold change vs control] | mIFN-γ mRNA Level [3, 17] [fold change vs control] | mIFN-γ mRNA Level [3, 18] [fold change vs control] | mIFN-γ mRNA Level [3, 19] [fold change vs control] | mIFN-γ mRNA Level [3, 20] [fold change vs control] | further results
1 | Concanavalin A [ConA, reference compound] | 22.09 | 14.24 | 13.33 | 8.16 | 5.24 | 3.93 | 13.49 | 6.35 | 7.11 | 283.65 | 40.09 | 31.11 | 19.64 | 49.3 | 18.2 | 0.4 | 29.5 | 3.0 | 15.5 | 8.9 | mIFN-γ mRNA Level [3, 13]: 40.9 fold change vs control; 1L-13 mRNA Fold Change ([4]; Group ID 3, 2.5 μg/mL): 15.6 fold; IL-13 mRNA Fold Change ([4]; Group ID 3, 2.5 μg/mL): 27.4 fold; 1L-13 mRNA Fold Change ([4]; Group ID 4, 2.5 μg/mL): 20.4 fold; IL-13 mRNA Fold Change ([4]; Group ID 4, 2.5 μg/mL): 34.8 fold
2 | L-glutamic acid polymer with L-alanine, L-lysine and L-tyrosine, acetate (salt) [GA] |  |  |  |  |  |  |  |  |  |  |  |  |  | 2.1 | 4.6 | 4.6 | 7.0 | 2.4 | 1.2 | 1.8 | IL-5 secretion, dose response to GA (in words) ([1]; BALB/cByJ cells and CD1 cells): dose-dependent manner; IL-2 secretion, dose response to GA (in words) ([2]; LN cells from each of the three mouse strains): dose-dependent manner; mIFN-γ mRNA Level [3, 13]: 1.3 fold change vs control; IL-13 cross-potency ([4]; Copaxone: C/A, GMA: B/D, 5 μg/mL): 74.8%
3 | MBP: myelin basic protein, a negative control (protein, UniProt P02686 1-304, looked up) Myelin basic protein: MGNHAGKRELNAEKASTNSETNRGESEKKRNLGELSRTTSEDNEVFGEADANQNNGTSSQDTAVTDSKRTADPKNAWQDAHPADPGSRPHLIRLFSRDAPGREDNTFKDRPSESDELQTIQEDSAATSESLDVMASQKRPSQRHGSKYLATASTMDHARHGFLPRHRDTGILDSIGRFFGGDRGAPKRGSGKDSHHPARTAHYGSLPQKSHGRTQDENPVVHFFKNIVTPRTPPPSQGKGRGLSLSRFSWGAEGQRPGFGYGGRASDYKSAHKGFKGVDAQGTLSKIFKLGGRDSRSGSPMARR | 1.22 | 0.99 | 1.07 | 1.31 | 0.85 | 0.99 | 1.33 | 1.00 | 1.16 | 1.13 | 1.18 | 1.30 | 1.29 | 0.8 | 0.2 | 0.6 | 0.9 | 0.6 | 1.1 | 0.9 | 1L-13 mRNA Fold Change ([4]; Group ID 3, 10 μg/mL): 0.7 fold; IL-13 mRNA Fold Change ([4]; Group ID 3, 10 μg/mL): 0.5 fold; 1L-13 mRNA Fold Change ([4]; Group ID 4, 10 μg/mL): 1.0 fold; IL-13 mRNA Fold Change ([4]; Group ID 4, 10 μg/mL): 1.2 fold
